Experimental data from patent US9090617B1, “Agonists of Src homology-2 containing protein tyrosine phosphatase-1 and treatment methods using the same” (National Taiwan University, priority 2011, dated 2015).
“Also recorded” adds a separate entry of the source. Where two headings read alike, the source gives them in different places.

Legend:
phospho-STAT3 (Tyr705) = test: Phospho-STAT3 (Tyr705) sandwich ELISA; format: cell-based; settings: for p-STAT3 / STAT3 activity (phospho-STAT3 ELISA and luciferase reporter): PLC5 cells
Description: A PathScan Phospho-Stat3 (Tyr705) Sandwich ELISA Kit was used for the detection of phospho-STAT3 (Cell Signaling, Danvers, Mass.). Cells were pre-treated with IL-6 1 ng/ml and then exposed with various compounds at 10 μM for 24 h. After incubation with cell lysates, both non-phospho- and phospho-Stat3 proteins are captured by the coated antibody. The expression of phospho-STAT3 was measured at 450 nm absorbance.
The decreased level of P-STAT3 induced by these derivatives was correlated with cell toxicity. In the other words, these derivatives induced cell death in part through inhibition of STAT3.
We also assayed the activation status of p-STAT3 by STAT3 ELISA. […] SC-1 or sorafenib-treated cell extracts were incubated with antibody against phosphorylated STAT3 at Y705. […] To evaluate the transcriptional activity, STAT3-binding region was cloned into Luc reporter. […] The firefly luciferase activity was evaluated and normalized by Renilla luciferase.
p-STAT3 activity: PLC5 cells treated with SC derivatives were collected in RIPA buffer and analyzed in p-STAT3 ELISA kit. The assay protocol follows the manufacturer.

[1] = test system: p-STAT3, cyclin D1, survivin, Mc1-1; test: Western blot of STAT3-related proteins in HCC cells; format: cell-based; settings: HCC cells, 24 h
Description: Cells were treated with various compounds at 5 and 10 μM for 24 h. Cell lysates were analyzed by western blot.
HCC cells treated with SC-43 (10 μM for 24 h) were collected with RIPA lysis buffer. Antibodies for immunoblotting such as cyclin D1 was purchased from Santa Cruz Biotechnology. Other antibodies such as survivin, phospho-STAT3 (Tyr705), STAT3, Mc1-1, SOCS1, and SOCS3 were from Cell Signaling.

SHP-1 [2] = biological target: T1, SHP-1 (Homo sapiens, UniProt P29350); test: Phosphatase activity of recombinant SHP-1; format: biochemical; settings: 25 ng protein, 30 minutes
T1 sequence (P29350 whole entry): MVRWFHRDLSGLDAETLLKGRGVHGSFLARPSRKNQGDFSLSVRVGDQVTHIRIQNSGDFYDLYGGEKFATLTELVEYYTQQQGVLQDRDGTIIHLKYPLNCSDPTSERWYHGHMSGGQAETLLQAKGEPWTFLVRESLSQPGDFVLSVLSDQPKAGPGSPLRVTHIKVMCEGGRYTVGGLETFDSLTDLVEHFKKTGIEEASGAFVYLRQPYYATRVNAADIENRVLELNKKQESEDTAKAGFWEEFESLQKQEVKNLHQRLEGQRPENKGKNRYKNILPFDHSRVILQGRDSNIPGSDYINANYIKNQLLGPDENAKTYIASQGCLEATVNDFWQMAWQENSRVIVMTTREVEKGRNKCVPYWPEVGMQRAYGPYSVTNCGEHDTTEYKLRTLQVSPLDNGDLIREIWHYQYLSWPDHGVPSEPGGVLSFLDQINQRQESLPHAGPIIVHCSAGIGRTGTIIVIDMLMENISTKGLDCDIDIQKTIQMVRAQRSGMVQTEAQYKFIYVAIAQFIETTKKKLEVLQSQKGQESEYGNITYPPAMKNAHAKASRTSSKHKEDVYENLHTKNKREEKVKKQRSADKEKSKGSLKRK
Description: RediPlate 96 EnzChek Tyrosine Phosphatase Assay kit (R-22067) was used for SHP-1 activity assay (Molecular Probes). Recombinant SHP-1 protein (25 ng) was incubated with either SC-43 or SC-40 at the indicated dose for 30 minutes and then analyzed by SHP-1 phosphatase activity.

HCC cells [3] = test: cells; settings: 72 h
From the text: Points, mean; bars, SD (n=6).
Points, mean; bars, SD ([…]). […] The N-SH2 domain is in orange, the C-SH2 domain is in marine, the PTP domain is in hot pink, and the linkers between them are in gray. […] ELISA, enzyme-linked immunosorbent assay.

HCC cells [4] = test: Apoptosis analysis by flow cytometry (sub-G1); format: cell-based; settings: for apoptosis (sub-G1): HCC cells, 24 h
Description: Apoptotic cells were measured by flow cytometry (sub-G1). After treatment with various compounds, cells were trypsinized, collected by centrifugation and resuspended in PBS. After centrifugation, the cells were washed in PBS and resuspended in […] (PI) staining solution. Specimens were incubated in the dark for 30 min at 37° C. and then analyzed with an EPICS Profile II flow cytometer (Coulter Corp., Hialeah, Fla.). All experiments were performed in triplicate
Collected cells were fixed in 75% Ethanol and stained with 20 ug/ml Propidium Iodide (PI). Sub-G1 analysis was performed by flow-cytometry. […] Points, mean; bars, SD (n=6).

PLC5 tumors = test: Subcutaneous PLC5 xenograft; format: in vivo, mice; settings: for average tumor size versus control mice at the end of treatment: SC PLC5 tumor-bearing mice
Description: All experimental procedures using these mice were done in accordance with protocols approved by the Institutional Laboratory Animal Care and Use Committee of National Taiwan University. Each mouse was inoculated s.c. in the dorsal flank with 1×10^6 PLC5 cells suspended in 0.1 mL of serum-free medium containing 50% Matrigel (BD Biosciences). When tumors reached 100 to 200 mm3, mice received SC-40 tosylate (10 or 20 mg/kg) orally once daily. Tumors were measured weekly using calipers, and their volumes were calculated using the following standard formula: width×length×height×0.52.
(§1) We established an HCC orthotopic model using luc2-expressed PLC5 cells inoculated into liver of nude mice. […] To further correlate the molecular mechanism with the anticancer effect in vivo, p-STAT3 and SHP-1 activity in tumor extract from vehicle- and SC-treated mice was analyzed by immunoblotting. […] The pharmacokinetics of SC-43 was determined (FIG. 25E).

SHP-1 [5] = biological target: T1, SHP-1; test: Phosphatase activity of SHP-1 immunoprecipitated from PLC5 cells, incubated with compound in vitro; format: biochemical; parameters: PLC5 protein extract was incubated with anti-SHP-1 antibody in immunoprecipitation buffer overnight; endogenous in cells; host or cells: PLC5 (PLC/PRF/5)
Description: PLC5 protein extract was incubated with anti-SHP-1 antibody in immunoprecipitation buffer overnight. Protein G Sepharose 4 Fast flow (GE Healthcare Bio-Science) was added to each sample, followed by incubation for 3 hours at 4° C. with rotation. […] RediPlate 96 EnzChek Tyrosine Phosphatase Assay kit (R-22067) was used for SHP-1 activity assay (Molecular Probes).

PLC5 cells = test: MTT assay for cell growth inhibition in PLC5 cells; format: cell-based
Description: These compounds were analyzed by MTT assay for cell growth inhibition in the PLC5 cells.
Next, we changed the pyridine to a quinoline ring and amide linker to generate compounds 12-25. These compounds were also analyzed by MTT assay for cell growth inhibition in the PLC5 cells.

Raf-1 = biological target: T2, Raf-1 (Homo sapiens, UniProt P04049); test: Raf-1 kinase activity in lysates of treated cells; format: cell-based
T2 construct: Raf-1 immunoprecipitated from PLC5 cell extracts was incubated with MEK recombinant protein; endogenous in cells; host or cells: PLC5
T2 sequence (P04049 whole entry): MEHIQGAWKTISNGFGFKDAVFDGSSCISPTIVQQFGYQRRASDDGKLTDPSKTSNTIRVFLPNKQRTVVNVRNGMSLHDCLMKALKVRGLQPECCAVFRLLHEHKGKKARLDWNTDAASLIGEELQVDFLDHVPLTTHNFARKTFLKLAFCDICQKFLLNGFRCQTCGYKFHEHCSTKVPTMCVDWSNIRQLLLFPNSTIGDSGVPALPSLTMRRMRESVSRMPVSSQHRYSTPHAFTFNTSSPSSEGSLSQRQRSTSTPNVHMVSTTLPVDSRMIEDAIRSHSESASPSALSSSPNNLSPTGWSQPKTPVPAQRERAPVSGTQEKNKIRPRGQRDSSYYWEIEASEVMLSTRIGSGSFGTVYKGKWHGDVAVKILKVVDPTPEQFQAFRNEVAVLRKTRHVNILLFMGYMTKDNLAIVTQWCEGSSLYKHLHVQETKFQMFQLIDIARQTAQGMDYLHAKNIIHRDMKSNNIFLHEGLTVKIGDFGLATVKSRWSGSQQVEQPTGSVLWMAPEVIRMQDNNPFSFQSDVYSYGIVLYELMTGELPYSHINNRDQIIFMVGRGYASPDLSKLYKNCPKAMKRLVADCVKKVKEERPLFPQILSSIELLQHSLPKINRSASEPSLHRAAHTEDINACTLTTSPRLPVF
From the text: (§2) The RediPlate 96 EnzChek® Tyrosine Phosphatase Assay Kit (R-22067) was used for SHP-1 activity assay (Molecular Probes, Carlsbad, Calif.). The Raf-1 kinase cascade assay kit (Upstate-Millipore, Billerica, Mass.) was used to examine the Raf-1 kinase activity. The JAK2 kinase activity kit was purchased from Reaction Biology Corp. (Malvern, Pa.).

JAK2 = biological target: T3, JAK2 (Homo sapiens, UniProt O60674); test: JAK2 kinase activity; format: cell-based; settings: PLC5 cells, 10 μM, 24 h
T3 construct: endogenous in cells; host or cells: PLC5
T3 sequence (O60674 whole entry): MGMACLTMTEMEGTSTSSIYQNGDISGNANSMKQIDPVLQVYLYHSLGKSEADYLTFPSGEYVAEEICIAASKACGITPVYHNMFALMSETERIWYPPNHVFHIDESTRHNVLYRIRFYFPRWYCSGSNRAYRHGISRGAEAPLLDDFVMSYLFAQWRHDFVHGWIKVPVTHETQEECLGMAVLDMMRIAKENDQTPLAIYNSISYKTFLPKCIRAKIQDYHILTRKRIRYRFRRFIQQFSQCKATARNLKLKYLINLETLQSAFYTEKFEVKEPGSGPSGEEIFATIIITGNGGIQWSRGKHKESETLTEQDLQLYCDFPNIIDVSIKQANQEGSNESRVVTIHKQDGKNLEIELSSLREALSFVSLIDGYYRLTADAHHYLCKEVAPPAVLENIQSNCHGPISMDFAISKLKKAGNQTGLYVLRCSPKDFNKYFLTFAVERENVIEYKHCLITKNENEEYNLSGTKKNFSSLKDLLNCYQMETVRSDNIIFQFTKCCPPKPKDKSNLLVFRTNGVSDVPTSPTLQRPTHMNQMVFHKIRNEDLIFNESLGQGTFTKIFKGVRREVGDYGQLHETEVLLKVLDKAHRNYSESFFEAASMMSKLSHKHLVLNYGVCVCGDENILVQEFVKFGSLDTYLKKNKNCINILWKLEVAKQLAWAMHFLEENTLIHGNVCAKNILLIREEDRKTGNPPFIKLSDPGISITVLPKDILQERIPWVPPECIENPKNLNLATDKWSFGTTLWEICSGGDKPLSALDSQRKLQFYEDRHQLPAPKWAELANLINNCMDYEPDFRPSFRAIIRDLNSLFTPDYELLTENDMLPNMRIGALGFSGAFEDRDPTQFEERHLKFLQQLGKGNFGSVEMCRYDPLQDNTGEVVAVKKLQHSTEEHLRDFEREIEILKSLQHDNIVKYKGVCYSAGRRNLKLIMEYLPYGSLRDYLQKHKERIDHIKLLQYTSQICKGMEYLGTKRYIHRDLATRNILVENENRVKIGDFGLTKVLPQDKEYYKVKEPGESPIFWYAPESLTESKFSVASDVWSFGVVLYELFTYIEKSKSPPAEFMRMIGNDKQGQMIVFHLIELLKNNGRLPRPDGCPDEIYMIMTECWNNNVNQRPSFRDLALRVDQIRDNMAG
From the text: as §2

Huh-7 tumors = settings: for SHP-1 activity in Huh-7 tumors: tumor extract
Description: Male NCr athymic nude mice (5-7 weeks of age) were obtained from the National Laboratory Animal Center (Taipei, Taiwan). All experimental procedures using these mice were performed in accordance with protocols approved by National Taiwan University. […] Controls received vehicle (Chen K F et al. Cancer Res. 2008; 68:6698-6707).

VEGFR1 = biological target: T4, VEGFR1 (Homo sapiens, UniProt P17948); test: VEGFR1 activity in HUVEC cells; format: cell-based; settings: 24 h
T4 construct: we tested the effect of SC-49 on the activity of VEGFR1 in HUVEC cells; endogenous in cells; host or cells: HUVEC
T4 sequence (P17948 27-1338): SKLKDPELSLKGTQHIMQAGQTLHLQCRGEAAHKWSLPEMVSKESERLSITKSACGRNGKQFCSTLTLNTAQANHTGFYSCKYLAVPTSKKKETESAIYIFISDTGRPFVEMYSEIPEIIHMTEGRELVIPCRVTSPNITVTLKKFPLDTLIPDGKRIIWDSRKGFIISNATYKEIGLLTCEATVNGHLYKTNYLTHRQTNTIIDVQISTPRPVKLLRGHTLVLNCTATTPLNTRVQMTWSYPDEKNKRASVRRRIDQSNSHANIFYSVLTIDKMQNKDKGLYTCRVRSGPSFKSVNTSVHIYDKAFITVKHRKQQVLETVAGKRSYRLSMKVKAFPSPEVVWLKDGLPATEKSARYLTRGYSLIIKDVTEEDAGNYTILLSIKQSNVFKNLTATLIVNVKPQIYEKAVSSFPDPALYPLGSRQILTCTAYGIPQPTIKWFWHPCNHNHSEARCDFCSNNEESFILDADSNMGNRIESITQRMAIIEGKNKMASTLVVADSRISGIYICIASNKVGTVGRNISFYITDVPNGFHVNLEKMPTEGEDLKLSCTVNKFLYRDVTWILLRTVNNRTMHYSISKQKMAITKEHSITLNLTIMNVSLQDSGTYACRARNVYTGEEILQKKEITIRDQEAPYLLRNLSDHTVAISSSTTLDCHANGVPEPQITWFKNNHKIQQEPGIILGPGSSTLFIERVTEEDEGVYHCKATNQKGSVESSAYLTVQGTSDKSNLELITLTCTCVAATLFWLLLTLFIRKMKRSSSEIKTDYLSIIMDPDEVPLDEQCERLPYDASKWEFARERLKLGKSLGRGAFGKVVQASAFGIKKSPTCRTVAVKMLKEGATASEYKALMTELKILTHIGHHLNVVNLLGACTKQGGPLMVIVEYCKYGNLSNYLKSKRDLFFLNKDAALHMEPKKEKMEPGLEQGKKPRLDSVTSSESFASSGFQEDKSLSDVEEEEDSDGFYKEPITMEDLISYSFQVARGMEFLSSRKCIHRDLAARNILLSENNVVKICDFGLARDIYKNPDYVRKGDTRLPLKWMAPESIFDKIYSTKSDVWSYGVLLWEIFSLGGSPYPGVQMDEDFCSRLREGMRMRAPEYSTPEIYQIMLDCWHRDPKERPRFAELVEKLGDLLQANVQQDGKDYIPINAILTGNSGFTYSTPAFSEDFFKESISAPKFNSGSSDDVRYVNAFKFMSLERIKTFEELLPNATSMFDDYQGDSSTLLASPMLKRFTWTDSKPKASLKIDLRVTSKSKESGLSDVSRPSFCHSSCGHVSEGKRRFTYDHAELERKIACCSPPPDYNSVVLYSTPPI
From the text: To further investigate the effect of SC-49 on angiogenesis, we tested the effect of SC-49 on the activity of VEGFR1 in HUVEC cells.

Huh-7 xenograft tumor = test: Huh-7 xenograft with SC-59 or sorafenib and radiation; format: in vivo, mice; settings: 10 mg/kg p.o. once daily plus 5 Gy radiation for 4 days
Description: (A) The effects of SC-59 and radiation on tumor growth. Each mouse was inoculated subcutaneously in the right leg with […] Huh-7 cells suspended in Matrigel. When the tumor reached a volume of 400-600 mm3, mice received vehicle, 5 Gy radiation (one fraction per day) for 4 days, or 10 mg/kg SC-59 p.o. once daily, or a combination for the duration of the study. The data points indicate the mean values (n=6) and the bars indicate the standard error. There were significant differences between the combined treatment group and the vehicle control group (*, P<0.05, **, P<0.01). (B) Left, the expression of P-STAT3 in the Huh-7 tumors was analyzed by western blot. Right, quantified data for p-STAT3 to STAT3. (C) The activity of SHP-1 in Huh-7 tumors. Values are means±SD, *, P<0.05. (D) Body weight of mice after SC-59 and RT treatment. […] The data points indicate the mean values (n=6) and the bars indicate the standard error. […] (H) Body weight of mice treated with vehicle, RT, sorafenib, and combination.
To further elucidate the molecular events responsible for this synergistic effect, we examined the expression level of p-STAT3 in the tumor extract.

STAT3 = STAT3 luciferase reporter assay; format: cell-based; settings: 10 μM, 24 h
Description: Cells were seeded in 96-well plate and pre-treated with IL-6 at the dose […] for 30 min. The STAT3 reporter kit was purchased from SABiosciences (Frederick, Md.).
STAT3 reporter assay: PLC5 cells were seeded in a 96-well plate. Cells were pretransfected with STAT3 reporter construct for 24 h and treated with derivatives for another 24 h. The STAT3 Reporter Kit was purchased from SABiosciences.

[6] = test system: PLC5/luc2 orthotopic tumors; test: HCC orthotopic model with PLC5/luc2 cells; format: in vivo, mice; settings: 10 mg/kg/day orally
Description: All experimental procedures using these mice were done in accordance with protocols approved by the Institutional Laboratory Animal Care and Use Committee of National Taiwan University. Each mouse was inoculated within liver […] with 1×10^4 PLC5/luc cells suspended in 0.1 mL of serum-free medium containing 50% Matrigel (BD Biosciences). […] Tumor growth was monitored by non-invasive in vivo imaging system (IVIS) image system twice weekly.
as §1

Nc1cc(Oc2cccc(NS(=O)(=O)c3cccc(C(F)(F)F)c3)c2)ccc1[N+](=O)[O-] [SC-40, N-(3-(trifluoromethyl)benzene-sulfonyl)-3-(3-amino-4-nitrophenoxy)benzenamine]
p-STAT3 / STAT3 activity (phospho-STAT3 ELISA and luciferase reporter) (phospho-STAT3 (Tyr705)): induce strong inhibition of p-STAT3 activity; also recorded: showed more potent inhibition of the p-STAT3-related signaling pathway | p-STAT3 and STAT3-related proteins (Western blot) [1]: down-regulates phospho-STAT3-related signaling pathway in HCC | phosphatase activity of recombinant SHP-1 (SHP-1 [2]): increase phosphatase activity of SHP-1 in vitro | viability of HCC cells / cytotoxicity (HCC cells [3]): showed lower 50% inhibitory concentration, compared to sorafenib | apoptosis (sub-G1) (HCC cells [4]): show significant anti-cancer effects in HCC cells | apoptosis in sorafenib-resistant cells (HCC cells [4]; sorafenib-resistant HCC cells (SR1)): resulted in significant apoptosis in sorafenib-resistant cells at submicromolar concentrations | p-STAT3 and SHP-1 activity in PLC5 tumor lysate (PLC5 tumors; 10 mg/kg/day orally): Down-regulation of p-STAT3 and elevation of SHP-1 activity | body weight of the animals (PLC5 tumors; PLC5 xenograft, 10 or 20 mg/kg orally once daily): do not affect body weight of the animals | average tumor size versus control mice at the end of treatment (PLC5 tumors; 10 mg/kg/day orally): less than half that of control mice | antitumor effect on PLC5 tumors (PLC5 tumors; SC-40 tosylate 10 or 20 mg/kg orally once daily): has significant anti-tumor effect on PLC5 tumors | phosphatase activity of SHP-1 in vitro (SHP-1 [5]; SHP-1-containing PLC5 extract, 10 or 100 nmol/L, 30 min, 4° C.): increase phosphatase activity of SHP-1 in vitro

CNC(=O)c1cc(Oc2ccc(NC(=O)Nc3ccc(Cl)c(C(F)(F)F)c3)cc2)ccn1 [Sorafenib, reference compound]
IC50 (PLC5 cells): 8.3 µM | inhibition at 5 µM (Raf-1; PLC5, read-out: inhibition of Raf-1 kinase activity of the untreated cells): 50% | reduction in Raf-1 kinase activity (Raf-1; Raf-1 immunoprecipitated from PLC5 or Hep3B cell extracts, 10 μM, 24 h): 20-40% | activity of p-STAT3 by STAT3 ELISA (phospho-STAT3 (Tyr705); Sk-Hep1 cells pre-treated with IL-6, 24 h): decreased the activity of p-STAT3 significantly | p-STAT3 and STAT3-related proteins (Western blot) [1]: down-regulated p-STAT3 at Y705 residue and suppressed Mc1-1 and cyclin D1 | kinase activity of JAK2 (JAK2): neither sorafenib nor SC-1 altered the kinase activity of JAK2 | Huh-7 tumor size / growth versus control (Huh-7 tumors; 10 mg/kg/day orally): less than half that of control mice | body weight or toxicity (Huh-7 tumors; mouse, in vivo, po, 10 mg/kg/day): no apparent differences in body weight or toxicity | SHP-1 activity in Huh-7 tumors (Huh-7 tumors): showed significant induction of SHP-1 activity in vivo | SHP-1 activity in Huh-7 tumors (Huh-7 tumors; listed as sorafenib): enhanced the activity of SHP-1 in Huh-7 tumours | viability of HCC cells / cytotoxicity (HCC cells [3]; HCC cell lines, MTT): decreased the viability of various HCC cells | apoptosis (sub-G1) (HCC cells [4]): showed a significant increase in sub-G1 phase population | activity of VEGFR1 (VEGFR1): significantly inhibited the activity of VEGFR1 in HUVEC cells | tumor growth with radiotherapy combination (Huh-7 xenograft tumor): did not display a better synergistic effect when used in combination with radiotherapy | transcription activity of STAT3 (Luc reporter) (STAT3): transcription activity of STAT3 was significantly decreased | activity of SHP-1 in SHP-1 immunoprecipitates incubated with drug (SHP-1 [5]; PLC5 lysates, incubated 6 hours): increase the activity of SHP-1

Cc1ccc(NC(=O)Nc2ccc(C)c(Oc3ccc(C#N)cc3)c2)cc1Oc1ccc(C#N)cc1 [SC-60, 1,3-bis(3-(4-cyanophenoxy)-4-methylphenyl)urea]
p-STAT3 / STAT3 activity (phospho-STAT3 ELISA and luciferase reporter) (phospho-STAT3 (Tyr705)): showed significant inhibition of STAT3 activity | p-STAT3 and STAT3-related proteins (Western blot) [1]: downregulated phospho-STAT3 (p-STAT3) at tyrosine 705 in a dose-dependent manner | average tumor size versus control mice at the end of treatment (PLC5 tumors; 10 mg/kg/day orally): less than half of those of control mice | anti-HCC effect and survival in orthotopic model [6]: displayed significant survival benefits compared with mice treated with vehicle or sorafenib
